The results in this text go back to patent US20240423995A1, “C-KIT INHIBITORS AND USES FOR TREATING AND PREVENTING INFLAMMATORY CONDITIONS” (GEORGETOWN UNIVERSITY, priority 2023, published 2024).

The structures appear in SMILES notation.

In one data set the target is T1, KIT (V559D, T670I) (Homo sapiens, UniProt P10721, T670I/V559D).
T1 construct: purchased Eurofins DiscoverX Corporation
In words: KINOMEscan competition binding screen, KIT (V559D, T670I). The following applies: for remaining binding at 10 µM: read-out: % Ctrl @ 10 μM. Here is the method: (§1) The KINOMEscan™ screening platform (Eurofins DiscoverX Corporation, San Diego, USA) was performed using an active site-directed competition binding assay to quantitatively measure interactions between BK40143, BK40197, BK40195, and BK40196 and more than 450 human kinases and disease relevant mutant variants. […] Screening “hits” were identified by measuring the amount of kinase captured in test (BK40143, BK40197, BK40195, and BK40196) versus control samples by using a quantitative and ultra-sensitive qPCR method that detects the associated DNA label. BK40143, BK40197, BK40195, and BK40196 were screened at 10 μM concentration, and results for primary screen binding interactions were reported as ‘% Ctrl’ (POC), where lower numbers indicate stronger hits and calculated as follows:
(§2) [formula] • test compound=BK40143 or BK40197 or BK40195 or BK40196 • negative control=DMSO (100% Ctrl) • positive control=control compound (0% Ctrl)
(§3) Based on screening data of profiled compounds, a proportional relationship between primary screening results and corresponding compound/target affinities can be described as binding constants (Kd values) for the indicated ranges of percent of control (PoC) values, with tighter binding (higher affinity) interactions associated with lower PoC values, and weaker binding (lower affinity) associated with higher PoC values. Briefly, kinase-tagged T7 phage strains were grown in parallel in 24-well blocks in an E. coli host derived from the BL21 strain. E. coli were grown to log-phase and infected with T7 phage from a frozen stock (multiplicity of infection=0.4) and incubated with shaking at 32° C. until lysis (90-150 minutes). The lysates were centrifuged (6,000×g) and filtered ([…]) to remove cell debris. The remaining kinases were produced in HEK-293 cells and subsequently tagged with DNA for qPCR detection. Streptavidin-coated magnetic beads were treated with biotinylated small molecule ligands for 30 minutes at room temperature to generate affinity resins for kinase assays. The liganded beads were blocked with excess biotin and washed with blocking buffer (SeaBlock (Pierce), 1% BSA, 0.05% Tween 20, 1 mM DTT) to remove unbound ligand and to reduce non-specific phage binding. Binding reactions were assembled by combining kinases, liganded affinity beads, and test compounds in 1× binding buffer (20% SeaBlock, 0.17×PBS, 0.05% Tween 20, 6 mM DTT). Test compounds were prepared as 100× stocks in 100% DMSO and directly diluted into the assay. All reactions were performed in polypropylene 384-well plates in a final volume of 0.02 ml. The assay plates were incubated at room temperature with shaking for 1 hour and the affinity beads were washed with wash buffer (1×PBS, 0.05% Tween 20). The beads were then re-suspended in elution buffer (1×PBS, 0.05% Tween 20, 0.5 μM non-biotinylated affinity ligand) and incubated at room temperature with shaking for 30 minutes. The kinase concentration in the eluates was measured by qPCR.

Data set [1] in a line: Maximum tolerated dose in wild-type C57BL/6 mice. The following applies: mouse, in vivo, ip, intraperitoneal injection, per day. As for the experimental part: (§4) Wild-type C57BL/6 mice were dosed with BK40197 via intraperitoneal injection at 50 mg/kg (maximum tolerated dose) per day for five days before blood samples were taken and peripheral mast cells were isolated via flow cytometry. Cell gating was performed using antibodies against specific epitopes for cells: CD45 antibody for leukocytes, FceR1 antibody for mature mast cells, and CD117 antibody for immature and mature mast cells.

For a further data set, the system named is peripheral mast cells. Kind of data set: Mature peripheral mast cells in blood of wild-type C57BL/6 mice by flow cytometry. In kind it is in vivo. The conditions noted are these: 50 mg/kg per day intraperitoneal for five days, p=0.06. Here is the method:
as §4
Background: A flow cytometer gives signals particle by particle.

A further data set has as its system mast cells (blood). Kind of data set: MC maturation in blood of transgenic APP mice by flow cytometry. In kind it is in vivo. The following applies: six weeks, vs DMSO. As for the experimental part: 12-month-old transgenic APP mice were injected intraperitoneally with either 5 mg/kg BK40143 or DMSO for six weeks before whole-blood samples were collected into tubes with 1000 U/mL heparin. Blood samples were then treated with the three flow-conjugated antibodies and analyzed for maturation of mast cell progenitors to mature mast cells, as described in Examples 3 and 4. Group differences were compared using an unpaired Student's t-test.
12-month-old transgenic APP mice were injected intraperitoneally with either 25 mg/kg BK40195 or DMSO for six weeks before having whole-blood samples collected into tubes containing 1000 U/mL heparin. Blood samples were then treated with the three flow-conjugated antibodies and analyzed for maturation of mast cell progenitors to mature mast cells, as described in Example 5. Differences were compared using an unpaired Student's t-test.
12-month-old transgenic APP mice were injected intraperitoneally with either 45 mg/kg BK40197 or DMSO for six weeks before having whole-blood samples collected into tubes containing 1000 U/mL heparin. Blood samples were then treated with the three flow-conjugated antibodies and analyzed for maturation of mast cell progenitors to mature mast cells, as described in Example 5. Differences were compared using an unpaired Student's t-test.

In another data set the target is T2, KIT (L576P) (Homo sapiens, UniProt P10721, L576P).
T2 construct: purchased Eurofins DiscoverX Corporation
Kind of data set: KINOMEscan competition binding screen, KIT (L576P). The following applies: for remaining binding at 10 µM: read-out: % Ctrl @ 10 μM. Here is the method: as §1, §2, §3

The next data set concerns mast cells (spleen). Kind of data set: MC maturation in the spleen of transgenic APP mice by flow cytometry. The following applies: 20 and 40 mg/kg intraperitoneal, six weeks, vs DMSO. In kind it is in vivo. Here is the method: The studies in this example compared the number of immature MCs to the number of mature MCs in the spleen.
12-month-old transgenic APP mice were injected intraperitoneally with 20 mg/kg BK40196, 40 mg/kg BK40196, or DMSO for six weeks before having spleens collected for analysis. Spleen samples were then treated with the three flow-conjugated antibodies and analyzed for maturation of mast cell progenitors to mature mast cells, as described in Example 5. Differences were compared using an unpaired Student's t-test.

T1 sequence (P10721 26-976 V559D/T670I): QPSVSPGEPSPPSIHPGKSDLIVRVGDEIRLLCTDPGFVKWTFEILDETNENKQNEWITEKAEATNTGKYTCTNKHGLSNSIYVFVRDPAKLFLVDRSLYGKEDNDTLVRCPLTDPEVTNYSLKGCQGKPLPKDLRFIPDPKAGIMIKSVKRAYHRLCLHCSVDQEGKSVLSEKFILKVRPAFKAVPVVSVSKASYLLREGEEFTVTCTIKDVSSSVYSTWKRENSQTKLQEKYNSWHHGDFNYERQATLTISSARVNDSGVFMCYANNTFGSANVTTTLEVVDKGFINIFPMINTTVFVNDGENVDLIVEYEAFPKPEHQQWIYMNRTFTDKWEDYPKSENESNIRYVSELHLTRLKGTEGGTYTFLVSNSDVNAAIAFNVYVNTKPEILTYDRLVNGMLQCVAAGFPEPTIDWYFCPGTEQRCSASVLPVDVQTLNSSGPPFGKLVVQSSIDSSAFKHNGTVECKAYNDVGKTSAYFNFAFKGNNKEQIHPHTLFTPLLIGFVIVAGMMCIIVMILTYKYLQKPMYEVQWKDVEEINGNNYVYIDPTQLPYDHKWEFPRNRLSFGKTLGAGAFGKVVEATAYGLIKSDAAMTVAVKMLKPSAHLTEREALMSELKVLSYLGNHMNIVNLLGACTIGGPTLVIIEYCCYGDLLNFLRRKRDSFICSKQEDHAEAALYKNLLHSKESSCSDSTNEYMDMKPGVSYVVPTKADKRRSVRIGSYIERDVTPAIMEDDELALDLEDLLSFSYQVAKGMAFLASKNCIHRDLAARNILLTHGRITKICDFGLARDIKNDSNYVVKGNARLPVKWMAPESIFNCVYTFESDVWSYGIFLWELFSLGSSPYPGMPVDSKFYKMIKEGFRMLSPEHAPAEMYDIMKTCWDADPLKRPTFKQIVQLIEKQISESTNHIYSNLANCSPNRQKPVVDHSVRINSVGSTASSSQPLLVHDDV
T2 sequence (P10721 26-976 L576P): as the sequence (P10721 26-976 V559D/T670I) above, with D534V, L551P, I645T counted along it

In general, inhibition refers to the change of the read-out against control, counted positive when it falls. As a reminder, the MTD is the highest dose tested that stayed within the study's limit of toxicity. As for `Cc1cccc(-c2cc3nccc(N4CCOCC4)c3s2)c1` [BK40197], on KIT (V559D, T670I), the inhibition at 10 µM came to 80% and the remaining binding at 10 µM came out at 20%. The molecule also had an MTD at 5 days in data set [1] of 50 mg/kg. For the same molecule, the “reduction of gating for mature MCs (CD117+/FceR1+) compared to DMSO” value with peripheral mast cells is 48%. For the same molecule, the “ratio of immature MCs (CD117 only) to mature MCs (CD117 and FceR1)” value in the data set with mast cells (blood) (45 mg/kg intraperitoneal, p=0.07) is “significantly increased”. At KIT (L576P), the inhibition at 10 µM turned out to be 98.2% and the remaining binding at 10 µM was found to be 1.8%.

For the molecule `COc1cccc(Nc2ccnc3cc(-c4cccc(C)c4)sc23)c1` [BK40195], on KIT (V559D, T670I), 10 µM produced 97.5% inhibition and the remaining binding at 10 µM is 2.5%. Also, the “ratio of immature MCs (CD117 only) to mature MCs (CD117 and FceR1)” value in the data set on mast cells (blood) (25 mg/kg intraperitoneal, p=0.04) is “significantly increased”. Further, on KIT (L576P), 10 µM produced 91.9% inhibition and the remaining binding at 10 µM was 8.1%.

With `Cc1cccc(-c2cc3nccc(Nc4ccccc4)c3s2)c1` [BK40143], the inhibition at 10 µM is 81% on KIT (V559D, T670I) and 96.5% on KIT (L576P). Further, the remaining binding at 10 µM at KIT (V559D, T670I) was determined as 19%; on KIT (L576P), 3.5%. For the same molecule, the “ratio of immature MCs (CD117 only) to mature MCs (CD117 and FceR1)” value in the data set on mast cells (blood) (5 mg/kg intraperitoneal, p=0.03) is “significantly increased”.

`Cc1cccc(-c2cc3nccc(Nc4cccc(O)c4)c3s2)c1` [BK40196]: at KIT (V559D, T670I), the inhibition at 10 µM is 97.6% and the remaining binding at 10 µM came to 2.4%. Moreover, in the data set with mast cells (spleen) (dose-dependent), the “total number of mature MCs (CD117+/FceR1+) in the spleen” value is “significantly reduced” and the “total number of mature MCs (FceR1+) in the spleen” value is recorded as “significantly reduced”. Further, the “ratio of immature MCs (CD117 only) to mature MCs (CD117 and FceR1) in the spleen” value with mast cells (spleen) was “increased”. For the same molecule, on KIT (L576P), the inhibition at 10 µM was found to be 99.2% and the remaining binding at 10 µM came out at 0.8%.
